Columns and labels:
Assay type in all cases: cell-based
[1] = tested on: THP-1 NSC-370284-resistant clones; assay: Viability of THP-1 NSC-370284-resistant clones with chemotherapy drugs; conditions: 3 resistant clones; 48 hours
Procedure: FIG. 6. […] (a) NSC-370284-resistant AML cells are sensitive to DNR. Three of the THP-1 NSC-370284-resistant clones (DRC-1-3) and the parental control were treated with DNR at indicated doses. Cell viability was tested 48 hours after the treatments. […] Relative cell viability at 48 hours post drug treatment is shown. Error bar indicates SD of triplicate experiments. (d) Synergistic therapy of NSC-370284 or UC-514321 in combination with standard chemotherapy. Secondary BMT recipient mice were transplanted with primary MLL-AF9 leukemic BM cells. […] 5-9 mice were included in each group. Kaplan-Meier curves are shown. The P values were determined by log-rank test. (e) Wright-Giemsa staining of mouse PB and BM, or H&E staining of mouse spleen and liver of MLL-AF9 secondary BMT recipients treated with “5+3” alone, or combinational therapy.
Long-term treatment with a drug may cause drug resistance in patients, and thus combinatory therapy is often required. To treat AML cells that have gained resistance to inhibitors, the effects of a set of first-line AML chemotherapy drugs including daunorubicin (DNR), cytarabine (AraC), all-trans retinoic acid (ATRA), azacytidine (AZA), and decitabine (DAC) on the viability of parental THP-1 cells and three NSC-370284-resistant clones were investigated (FIG. 6a and FIG. 18a-d).

[2] = tested on: Tet1 deficient mouse BM progenitor cells transduced with MLL-AF9; assay: Viability of MLL-AF9-transduced Tet1 deficient BM progenitor cells; conditions: 48 hrs; 200 nM (FIG. 13)
Procedure: FIG. 5. […] Gene expression levels are shown. […] ChIP-qPCR assay was carried out 48 hrs after drug treatment. Enrichment of STAT3, STAT5, or IgG at the TET1 promoter region and other regions are shown. […] BM progenitor cells of wild-type or Tet1^−/− mice were retrovirally transduced with MLL-AF9. […] Relative cell viabilities are shown. (m) Cre-Tet1f mouse BM progenitor cells were retrovirally transduced with MLL-AF9. […] Relative cell viability is shown. (n-o) THP-1 (n) and MONOMAC-6 (o) cells were infected with lentivirus of pLenti-puro vector-based Tet1 construct. […] Relative cell viability is shown. *, P<0.05; **, P<0.01, two-tailed t-test. Error bar indicates SD of triplicate experiments.
FIG. 13. […] (a-d) BM progenitor cells of wild-type or Tet1^−/− mice were retrovirally transduced with MLL-AF9. Infected cells were treated with 200 nM JAK/STAT inhibitors individually, including Pacritinib (a), KW-2449 (b), Stattic (c) or sc-355979 (d), for 48 hrs. Relative cell viabilities are shown. (e) Cre-Tet1^fl/fl mouse BM progenitor cells were retrovirally transduced with MLL-AF9. […] Cell viabilities (normalized to non-induced Cre-Tet1^fl/fl treated with DMSO control) are shown. ‘K, P<0.05; ‘K‘K, P<0.01, two-tailed t-test
siRNAs were transfected into MONOMAC-6 cells with Cell Line Nucleofector Kit V following program T-037, using the Amaxa Nucleofector Technology (Amaxa Biosystems, Berlin, Germany). Experiments were performed 48 h after transfection. Retrovirus infection of mouse BM progenitor cells were conducted as described previously with some modifications. Briefly, retrovirus vectors were co-transfected with pCL-Eco packaging vector (IMGENEX, San Diego, Calif.) into HEK293T cells using Effectene Transfection Reagent (Qiagen, Valencia, Calif.) to produce retrovirus. BM cells were harvested from a cohort of 4- to 6-week-old C57BL/6, Tet1^−/−, or Cre-Tet1^fl/fl donor mice after five days of 5-fluorouracil (5-FU) treatment, and primitive hematopoietic progenitor cells were enriched with Mouse Lineage Cell Depletion Kit (Miltenyi Biotec Inc., Auburn, Calif.). An aliquot of enriched hematopoietic progenitor cells was added to retroviral supernatant together with polybrene in cell culture plates, which were centrifuged at 2,000 g for 2 hours at 32° C. (i.e., spinoculation) and then the medium was replaced with fresh media and incubated for 20 hours at 37° C. Next day, the same procedure was repeated once. Infected cells were grown in RPMI 1640 medium containing 10 ng/mL murine recombinant IL-3, 10 ng/mL IL-6, 100 ng/mL murine recombinant SCF (R&D Systems, Minneapolis, Minn.), along with 1.0 mg/ml of G418. Experiments were performed 7 days after infection.
(§1) These experiments were conducted as described previously (Jiang, X., et al., Blockade of miR-150 Maturation by MLL-Fusion/MYC/LIN-28 Is Required for MLL-Associated Leukemia, Cancer Cell 22:524-35 (2012); Li, Z., et al., miR-196b directly targets both HOXA9/MEIS1 oncogenes and FAS tumour suppressor in MLL-rearranged leukaemia, Nat Commun 2:688 (2012)) with ApoLive-Glo Multiplex Assay Kit, or CellTiter 96 AQueous Non-Radioactive Cell Proliferation Assay Kit (Promega, Madison, Wis.).

[3] = tested on: TET1-high AML (including MONOMAC-6, THP-1, and KASUMI-1) cells; assay: MTS viability of AML cell lines versus JAK/STAT inhibitors; conditions: MTS 48 hrs; maximum concentration tested 500 nM
Procedure: FIG. 4. […] (a) Structures of NSC-370284 and UC-514321. […] Cells were treated with drugs at indicated doses. Cell viability was detected by MTS 48 hrs post-treatment. Error bar indicates SD of triplicate experiments. […] Secondary BMT recipient mice were transplanted with primary leukemic BM cells with MLL-AF9 (f) or AML-ETO9a (g). […] Kaplan-Meier curves are shown. The P values were determined by log-rank test. […] Secondary BMT recipient mice were transplanted with primary leukemic BM cells with MLL-AF10 or FLT3-ITD/NPM1^mut. […] Kaplan-Meier curves are shown. The P values were determined by log-rank test. (j) Wright-Giemsa staining of mouse PB and BM, or H&E staining of mouse spleen and liver of MLL-AF9 AML secondary BMT recipients with or without drug treatment.
as §1

## COc1cccc2c1C(=O)c1c(O)c3c(c(O)c1C2=O)C[C@@](O)(C(C)=O)C[C@@H]3O[C@H]1C[C@H](N)[C@H](O)[C@H](C)O1 [DNR, daunorubicin]
[1]
  sensitivity of drug-resistant clones relative to parental THP-1 control: much more sensitive

## O=C(c1ccc(/C=C/c2n[nH]c3ccccc23)cc1)N1CCNCC1 [KW-2449, reference compound]
[2]
  difference in cell viability between wild-type and Tet1 deficient cells: no significant differences

## C1=C/COCc2cc(ccc2OCCN2CCCC2)Nc2nccc(n2)-c2cccc(c2)COC/1 [Pacritinib, reference compound]
[2]
  difference in cell viability between wild-type and Tet1 deficient cells: no significant differences

## O=[N+]([O-])c1ccc2c(c1)S(=O)(=O)C=C2 [Stattic, reference compound]
[3]
  inhibitory effects on the viability of these AML cells: did not show significant inhibitory effects
[2]
  difference in cell viability between wild-type and Tet1 deficient cells: no significant differences

## O=C(NN=Cc1coc2ccccc2c1=O)c1cccnc1 [sc-355979, reference compound]
[3]
  inhibitory effects on the viability of these AML cells: did not show significant inhibitory effects
[2]
  difference in cell viability between wild-type and Tet1 deficient cells: no significant differences

Reference: patent publication US11311513B2, “Methods, agents, and compositions for the treatment of acute myeloid leukemia” (UNIVERSITY OF CINCINNATI, priority 2017, dated 2022)
